{"source": "patent US11154057B2", "about": "“Use of nootkatone to treat mosquito infestations” (EVOLVA SA, priority 2016, dated 2021)", "assay_type_in_all_cases": "in vivo", "key": {"Aedes aegypti larvae [1]": {"test_system": "Aedes aegypti larvae", "assay": "Larval bioassay comparing nootkatone with soy oil and mineral oil (Example No. 2)", "conditions": "FIG. 3", "description": "This example describes a laboratory bioassay in which groups of mosquito larvae were exposed to compositions that contain oils, but not nootkatone, to determine whether larval mortality was due to suffocation by oils in general, or due to a specific property of nootkatone.\nOne milliliter of a solution of oil in ethanol was applied directly to 100 milliliters of water containing larvae, using a micropipette. One treatment condition used 3% (v/v) soybean oil in ethanol, and a second treatment condition used 3% (v/v) mineral oil in ethanol, for final concentrations of 0.03% (v/v), respectively. One milliliter of pure ethanol was used as a control, and 0.03% (v/v) nootkatone in ethanol was included as a comparison of efficacy. Two replicates of 25 larvae were tested per treatment in clean, glass 600 mL beakers.\nReadings were discontinued if treated mortality reached 100%, or control mortality exceeded 20%."}, "Aedes aegypti eggs": {"test_system": "Aedes aegypti eggs", "assay": "Prevention of mosquito egg hatching (Example No. 5)", "conditions": "0.03% nootkatone/1% ethanol, 24 hours", "protocol": "Mosquito eggs from Aedes aegypti and Anopheles quadrimaculatus mosquitoes were obtained from a commercial source.\nIn a second experiment, Aedes aegypti eggs were divided into cohorts of ˜100 eggs. Each cohort was placed inside a clean 9 cm Petri dish after receiving mock treatment or a true treatment with nootkatone (see “Treatments”), after which the Petri dish was covered with its lid and held at 30-35° C. to allow hatching. Hatching was scored as the number of live larvae after 24 hours. Four cohorts were tested per treatment.\nAn aliquot of 0.2 mL of a 3% solution (w/v) of nootkatone in 100% ethanol was added to 20 mL of sterile MilliQ water in treatment Petri dishes to obtain a final concentration of 0.03% nootkatone/1% ethanol. Control beakers received 0.2 mL of 100% ethanol, to obtain a final concentration of 1% ethanol.\nThe rate of egg hatching was calculated for each treatment and control egg cohort, and the results of at least 4 cohorts were averaged, and used to calculate the relative hatch rate for treatments versus controls (see FIG. 11). […] Therefore, nootkatone treatment of mosquito breeding sites will effectively reduce mosquito populations by preventing hatching and killing hatched larvae."}, "[2]": {"test_system": "Adult Aedes aegypti mosquitoes", "assay": "Prevention of adult mosquito egg laying on treated filter papers; fecundity and adult mortality (Example No. 8)", "conditions": "for Adult mosquito mortality: Affected, mean / Adult mosquito mortality: Dead, mean / Adult mosquito mortality: Knockdown, mean: 1% NK treated filter paper, cage of 100 mosquitoes; for Percent fecundity reduction, average: filter paper treated with 1 mL, dried, versus untreated paper in the same cage of 100 blood fed mosquitoes, triplicate", "protocol": "Adult Aedes aegypti mosquitoes from a laboratory were blood fed and mated. Testing was conducted 2 days after administration of the blood meal to ensure that females were ready to oviposit.\nWhite filter paper was cut to fit Petri dishes 9 cm in diameter, and each paper was treated with 1 mL of ethanol, 1% nootkatone, Formulation ECS-F-#605, or Formulation ECS-F_#607 (see Table No. 5). The filter papers were allowed to dry completely, and two Petri dishes were added to each cage of 100 blood fed mosquitoes, one treated, and one untreated control. A few milliliters of water was added to each Petri dish to provide a suitable egg laying site. […] Each treatment was tested in triplicate.\nFemale mosquitoes lay a high density of eggs (black spots) on suitable egg laying substrates, such as white filter paper. It was anticipated that either adult females would be repelled from egg laying sites that were treated with nootkatone, or that they would attempt to land and be poisoned by contacting nootkatone on the water surface. The rate of egg laying on the treated surface and the control surface, the presence of any adults found dead on the surface, and the overall mortality rate on a daily basis were recorded, and the average and standard error were calculated versus the untreated controls. […] An unexpected result was that filter papers treated with ethanol alone had 24% more eggs laid than the average of the untreated filter papers in the same cages. […] Photographs of representative filter papers are shown in FIG. 15, 1% nootkatone treatment (left), ethanol-only control (right)."}, "Aedes aegypti larvae [3]": {"test_system": "Aedes aegypti larvae", "assay": "Liquefied nootkatone dripped onto the water surface as larvicide (Example No. 9, Treatment 1)", "conditions": "thirty one microliters liquefied nootkatone on 100 mL water; 25 larvae; 24 hours", "protocol": "(§1) In this example, nootkatone-containing compositions were evaluated for their ability to act as a larvicide by coating a water surface. Mixed sex 3rd and 4th instar Aedes aegypti larvae (Yellow fever mosquito) were tested.\n98% pure nootkatone crystals were held at 38° C. until they liquefied. Previous testing has shown that 1 mL of a 3% solution of nootkatone dissolved in ethanol, when added to 100 mL of water containing mosquito larvae, kills 100% of larvae in less than 24 hours. This experiment tested whether an equivalent amount of liquefied nootkatone alone is able to kill larvae. Thirty one microliters of liquified nootkatone crystals were dripped onto the surface of 100 mL of water in a 600 mL clean, glass beaker containing 25 mixed sex 3rd and 4th instar Aedes aegypti larvae."}, "Aedes aegypti larvae [4]": {"test_system": "Aedes aegypti larvae", "assay": "Nootkatone crystals dropped onto the water surface as larvicide (Example No. 9, Treatment 3)", "conditions": "for Alive / Dead / KD: 30 mg NK crystals in 100 mL water", "protocol": "as §1\nStandard storage conditions for nootkatone crystals is 4° C., therefore, the ability of crystals to coat a water surface without first liquifying them was tested. 30 mg of 98% pure nootkatone crystals was weighed and gently dropped onto the surface of 100 mL of water in a 600 mL clean, glass beaker containing 10 mixed sex 3rd and 4th instar Aedes aegypti larvae (3 replicates). Three control replicates of 10 larvae each were placed in identical beakers of 100 mL of water, but without nootkatone. All beakers were provided with finely ground fish food, and they were maintained at room temperature (˜72° F.)."}, "[5]": {"conditions": "30 mg nootkatone crystals, at 27 hours"}}}
{"compound": "C=C(C)[C@@H]1CCC2=CC(=O)C[C@@H](C)[C@]2(C)C1", "note": "[Nootkatone, nootkatone]", "values": [{"measurement": "larvae killed", "setting": "Aedes aegypti larvae [1]; 0.03% (v/v) final in water with ethanol, in 24 hours, two replicates of 25 larvae", "value": 100, "unit": "%"}, {"measurement": "effectiveness of killing larvae versus soy oil and mineral oil", "setting": "Aedes aegypti larvae [1]; 0.03% (v/v), after 24 hr treatment", "value": "more effective than either soy oil or mineral oil"}, {"measurement": "reduction in egg hatching versus the controls", "setting": "Aedes aegypti eggs", "value": 37, "unit": "%"}, {"measurement": "state of hatched larvae in treated dishes", "setting": "Aedes aegypti eggs", "value": "all larvae in the treated dishes were dead"}, {"measurement": "average number of hatched larvae per Petri dish", "setting": "Aedes aegypti eggs; cohorts of ~100 eggs, four dishes, controls 13.5, FIG. 11", "value": 8.5, "unit": "larvae"}, {"measurement": "Adult mosquito mortality: Affected, mean", "setting": "[2]; 1 day post-exposure", "value": 6.7, "unit": "per cage"}, {"measurement": "Adult mosquito mortality: Dead, mean", "setting": "[2]; 1 day post-exposure", "value": 6.7, "unit": "per cage"}, {"measurement": "Adult mosquito mortality: Knockdown, mean", "setting": "[2]; 1 day post-exposure", "value": 0.0, "unit": "per cage"}, {"measurement": "Adult mosquito mortality: Affected, mean", "setting": "[2]; 2 days post-exposure", "value": 10.7, "unit": "per cage"}, {"measurement": "Adult mosquito mortality: Dead, mean", "setting": "[2]; 2 days post-exposure", "value": 10.7, "unit": "per cage"}, {"measurement": "Adult mosquito mortality: Knockdown, mean", "setting": "[2]; 2 days post-exposure", "value": 0.0, "unit": "per cage"}, {"measurement": "total eggs laid on treated papers in 3 cages", "setting": "[2]; 1% nootkatone in ethanol, versus 700-1100 eggs per cage on untreated papers", "value": 2, "unit": "eggs"}, {"measurement": "Percent fecundity reduction, average", "setting": "[2]", "value": 99, "unit": "%"}, {"measurement": "Percent fecundity reduction, average", "setting": "[2]; listed as NK", "value": 99.9, "unit": "%"}, {"measurement": "kill rates for mosquito larvae compared with nootkatone dissolved in ethanol", "setting": "Aedes aegypti larvae [3]", "value": "not as high as previous testing"}, {"measurement": "Alive", "setting": "Aedes aegypti larvae [4]; 1 hr", "value": 100, "unit": "%"}, {"measurement": "Dead", "setting": "Aedes aegypti larvae [4]; 1 hr", "value": 0, "unit": "%"}, {"measurement": "KD", "setting": "Aedes aegypti larvae [4]; 1 hr", "value": 0, "unit": "%"}, {"measurement": "Alive", "setting": "Aedes aegypti larvae [4]; 27 hr", "value": 53, "unit": "%"}, {"measurement": "Dead", "setting": "Aedes aegypti larvae [4]; 27 hr", "value": 7, "unit": "%"}, {"measurement": "KD", "setting": "Aedes aegypti larvae [4]; 27 hr", "value": 40, "unit": "%"}, {"measurement": "Alive", "setting": "Aedes aegypti larvae [4]; 54 hr", "value": 3, "unit": "%"}, {"measurement": "Dead", "setting": "Aedes aegypti larvae [4]; 54 hr", "value": 70, "unit": "%"}, {"measurement": "KD", "setting": "Aedes aegypti larvae [4]; 54 hr", "value": 27, "unit": "%"}, {"measurement": "Alive", "setting": "Aedes aegypti larvae [4]; 77.5 hr", "value": 0, "unit": "%"}, {"measurement": "Dead", "setting": "Aedes aegypti larvae [4]; 77.5 hr", "value": 97, "unit": "%"}, {"measurement": "KD", "setting": "Aedes aegypti larvae [4]; 77.5 hr", "value": 3, "unit": "%"}, {"measurement": "killing", "setting": "Aedes aegypti larvae [4]; 30 mg nootkatone crystals, after more than 3 days", "value": "below 100%"}, {"measurement": "larvae alive (unaffected plus affected)", "setting": "Aedes aegypti larvae [4]; [5]", "value": 93, "unit": "%"}, {"measurement": "larvae that appeared to be unaffected", "setting": "Aedes aegypti larvae [4]; [5]", "value": "~50", "unit": "%"}]}
